Several values for one entry are separate records, joined by “and”; a condition that tells them apart may be missing. Equal values may be shown once. ± gives the uncertainty stated by the source.
Experiment: xn = mol fraction of the nth substance listed

CCC(=O)O + O
viscosity [mPa·s]
Details | x1 = 0.0263 | x1 = 0.0944 | x1 = 0.196 | x1 = 0.362 | x1 = 0.686
293.15 K, 101.33 kPa | 1.322 ± 0.013 | 1.977 ± 0.02 | 2.601 ± 0.026 | – | –
298.15 K, 101 kPa | 1.443 ± 0.29 | 2.821 ± 0.57 | 3.483 ± 0.7 | 3.351 ± 0.68 | 2.816 ± 0.57
308.15 K, 101 kPa | 1.08 ± 0.22 | 1.945 ± 0.39 | 2.418 ± 0.49 | 2.393 ± 0.48 | 2.082 ± 0.42
313.15 K, 101.33 kPa | 0.858 ± 0.0086 | 1.188 ± 0.012 | 1.552 ± 0.016 | – | –
318.15 K, 101 kPa | 0.856 ± 0.17 | 1.434 ± 0.29 | 1.789 ± 0.36 | 1.789 ± 0.36 | 1.592 ± 0.32

CCCCCCCCCCCCCC[P+](CCCCCC)(CCCCCC)CCCCCC.c1c[n-]nn1 + O
Details | viscosity [mPa·s]
298.15 K, 100 kPa, x2 = 0.8003 | 106 ± 3

CNN + O
293.15 K, 101.3 kPa
Details | viscosity [mPa·s]
x1 = 0.0514 | 1.53 ± 0.05
x1 = 0.1003 | 2.35 ± 0.07
x1 = 0.1615 | 3.54 ± 0.11
x1 = 0.2017 | 4.51 ± 0.14
x1 = 0.2563 | 5.58 ± 0.18
x1 = 0.303 | 6 ± 0.19
x1 = 0.3482 | 5.9 ± 0.19
x1 = 0.4048 | 5.5 ± 0.18
x1 = 0.4408 | 4.91 ± 0.16
x1 = 0.5008 | 4.07 ± 0.13
x1 = 0.6034 | 2.98 ± 0.09
x1 = 0.6873 | 2.16 ± 0.07
x1 = 0.8036 | 1.56 ± 0.05
x1 = 0.8917 | 1.22 ± 0.04

C[C@H](N)C(=O)O + O
Details | viscosity
298 K, 101 kPa, x1 = 0.0004 | 0.887 ± 0.0076 mPa·s
298 K, 101 kPa, x1 = 0.0007 | 0.8925 ± 0.0076 mPa·s
298 K, 101 kPa, x1 = 0.001 | 0.8956 ± 0.0077 mPa·s
298 K, 101 kPa, x1 = 0.0018 | 0.9013 ± 0.0077 mPa·s
298.15 K, 100 kPa, x1 = 0.0004 | 0.8955 ± 0.036 mPa·s
298.15 K, 100 kPa, x1 = 0.0007 | 0.8979 ± 0.036 mPa·s
298.15 K, 100 kPa, x1 = 0.001 | 0.9003 ± 0.036 mPa·s and 0.9029 ± 0.036 mPa·s
298.15 K, 101 kPa, x1 = 0.000169 | 0.9489 ± 0.045 mPa·s and 0.9489 ± 0.031 mPa·s
298.15 K, 101 kPa, x1 = 0.00045 | 0.8958 ± 0.021 mPa·s
298.15 K, 101 kPa, x1 = 0.0009 | 0.9013 ± 0.021 mPa·s
298.15 K, 101 kPa, x1 = 0.00135 | 0.9069 ± 0.021 mPa·s
298.15 K, 101 kPa, x1 = 0.00178 | 0.9677 ± 0.046 mPa·s and 0.9677 ± 0.031 mPa·s
298.15 K, 101 kPa, x1 = 0.0018 | 0.9126 ± 0.021 mPa·s
298.15 K, 101 kPa, x1 = 0.002695 | 0.9242 ± 0.021 mPa·s
298.15 K, 101 kPa, x1 = 0.003596 | 0.9759 ± 0.046 mPa·s and 0.9759 ± 0.031 mPa·s
298.15 K, 101 kPa, x1 = 0.005338 | 0.9871 ± 0.047 mPa·s and 0.9871 ± 0.031 mPa·s
298.15 K, 101 kPa, x1 = 0.01087 | 1.039 ± 0.049 mPa·s and 1.039 ± 0.031 mPa·s
298.15 K, 101 kPa, x1 = 0.0124 | 1.045 ± 0.049 mPa·s and 1.045 ± 0.031 mPa·s
298.15 K, 101 kPa, x1 = 0.01417 | 1.054 ± 0.05 mPa·s and 1.054 ± 0.031 mPa·s
303.15 K, 101 kPa, x1 = 0.00045 | 0.8023 ± 0.018 mPa·s
303.15 K, 101 kPa, x1 = 0.0009 | 0.8076 ± 0.018 mPa·s
303.15 K, 101 kPa, x1 = 0.00135 | 0.8128 ± 0.019 mPa·s
303.15 K, 101 kPa, x1 = 0.0018 | 0.8182 ± 0.019 mPa·s
303.15 K, 101 kPa, x1 = 0.001802 | 0.8176 ± 0.017 mPa·s
303.15 K, 101 kPa, x1 = 0.002245 | 0.8235 ± 0.019 mPa·s
303.15 K, 101 kPa, x1 = 0.002695 | 0.829 ± 0.019 mPa·s
303.15 K, 101 kPa, x1 = 0.01069 | 0.9202 ± 0.019 mPa·s
303.15 K, 101 kPa, x1 = 0.01245 | 0.9412 ± 0.02 mPa·s
308.15 K, 101 kPa, x1 = 0.000169 | 0.7568 ± 0.036 mPa·s and 0.7568 ± 0.031 mPa·s
308.15 K, 101 kPa, x1 = 0.00045 | 0.7238 ± 0.017 mPa·s
308.15 K, 101 kPa, x1 = 0.000844 | 0.7678 ± 0.036 mPa·s and 0.7678 ± 0.031 mPa·s
308.15 K, 101 kPa, x1 = 0.0009 | 0.7288 ± 0.017 mPa·s
308.15 K, 101 kPa, x1 = 0.00135 | 0.7338 ± 0.017 mPa·s
308.15 K, 101 kPa, x1 = 0.00178 | 0.7755 ± 0.037 mPa·s and 0.7755 ± 0.031 mPa·s
308.15 K, 101 kPa, x1 = 0.002245 | 0.7439 ± 0.017 mPa·s
308.15 K, 101 kPa, x1 = 0.002695 | 0.749 ± 0.017 mPa·s
308.15 K, 101 kPa, x1 = 0.003596 | 0.799 ± 0.038 mPa·s and 0.799 ± 0.031 mPa·s
308.15 K, 101 kPa, x1 = 0.005338 | 0.8044 ± 0.038 mPa·s and 0.8044 ± 0.031 mPa·s
308.15 K, 101 kPa, x1 = 0.007149 | 0.8133 ± 0.038 mPa·s and 0.8133 ± 0.031 mPa·s
308.15 K, 101 kPa, x1 = 0.008823 | 0.8201 ± 0.039 mPa·s and 0.8201 ± 0.031 mPa·s
308.15 K, 101 kPa, x1 = 0.01087 | 0.8366 ± 0.04 mPa·s and 0.8366 ± 0.031 mPa·s
308.15 K, 101 kPa, x1 = 0.0124 | 0.8431 ± 0.04 mPa·s and 0.8431 ± 0.031 mPa·s
308.15 K, 101 kPa, x1 = 0.01417 | 0.8612 ± 0.041 mPa·s and 0.8612 ± 0.031 mPa·s
313.15 K, 101 kPa, x1 = 0.00045 | 0.6571 ± 0.015 mPa·s
313.15 K, 101 kPa, x1 = 0.0009 | 0.6618 ± 0.015 mPa·s
313.15 K, 101 kPa, x1 = 0.00135 | 0.6666 ± 0.015 mPa·s
313.15 K, 101 kPa, x1 = 0.0018 | 0.6714 ± 0.015 mPa·s
313.15 K, 101 kPa, x1 = 0.002245 | 0.6761 ± 0.015 mPa·s
313.15 K, 101 kPa, x1 = 0.002695 | 0.6809 ± 0.016 mPa·s
313.15 K, 101 kPa, x1 = 0.005374 | 0.6994 ± 0.015 mPa·s
313.15 K, 101 kPa, x1 = 0.008931 | 0.7316 ± 0.015 mPa·s
313.15 K, 101 kPa, x1 = 0.01245 | 0.7659 ± 0.016 mPa·s
318.15 K, 101 kPa, x1 = 0.000169 | 0.6345 ± 0.03 mPa·s
318.15 K, 101 kPa, x1 = 0.00045 | 0.6014 ± 0.014 mPa·s
318.15 K, 101 kPa, x1 = 0.000844 | 0.6454 ± 0.031 mPa·s and 0.6454 ± 0.03 mPa·s
318.15 K, 101 kPa, x1 = 0.0009 | 0.6059 ± 0.014 mPa·s
318.15 K, 101 kPa, x1 = 0.00135 | 0.6104 ± 0.014 mPa·s
318.15 K, 101 kPa, x1 = 0.00178 | 0.6589 ± 0.031 mPa·s and 0.6589 ± 0.03 mPa·s
318.15 K, 101 kPa, x1 = 0.0018 | 0.6149 ± 0.014 mPa·s
318.15 K, 101 kPa, x1 = 0.002245 | 0.6195 ± 0.014 mPa·s
318.15 K, 101 kPa, x1 = 0.002695 | 0.624 ± 0.014 mPa·s
318.15 K, 101 kPa, x1 = 0.003596 | 0.6733 ± 0.032 mPa·s and 0.6733 ± 0.031 mPa·s
318.15 K, 101 kPa, x1 = 0.005338 | 0.6747 ± 0.032 mPa·s and 0.6747 ± 0.031 mPa·s
318.15 K, 101 kPa, x1 = 0.007149 | 0.6774 ± 0.032 mPa·s and 0.6774 ± 0.031 mPa·s
318.15 K, 101 kPa, x1 = 0.008823 | 0.699 ± 0.033 mPa·s and 0.699 ± 0.031 mPa·s
318.15 K, 101 kPa, x1 = 0.01087 | 0.7009 ± 0.033 mPa·s and 0.7009 ± 0.031 mPa·s
318.15 K, 101 kPa, x1 = 0.0124 | 0.7145 ± 0.034 mPa·s and 0.7145 ± 0.031 mPa·s
318.15 K, 101 kPa, x1 = 0.01417 | 0.7345 ± 0.035 mPa·s and 0.7345 ± 0.031 mPa·s
323.15 K, 101 kPa, x1 = 0.005374 | 0.5833 ± 0.012 mPa·s
323.15 K, 101 kPa, x1 = 0.008931 | 0.6095 ± 0.013 mPa·s
323.15 K, 101 kPa, x1 = 0.01069 | 0.6229 ± 0.013 mPa·s
323.15 K, 101 kPa, x1 = 0.01245 | 0.6364 ± 0.013 mPa·s

NN + O
Details | viscosity [mPa·s]
293.15 K, 101.3 kPa, x1 = 0.0526 | 1.11 ± 0.04
293.15 K, 101.3 kPa, x1 = 0.1045 | 1.26 ± 0.04
293.15 K, 101.3 kPa, x1 = 0.1502 | 1.4 ± 0.04
293.15 K, 101.3 kPa, x1 = 0.2047 | 1.57 ± 0.05
293.15 K, 101.3 kPa, x1 = 0.3013 | 1.8 ± 0.06
293.15 K, 101.3 kPa, x1 = 0.3512 | 1.88 ± 0.06
293.15 K, 101.3 kPa, x1 = 0.3967 | 1.96 ± 0.06
293.15 K, 101.3 kPa, x1 = 0.4526 | 1.92 ± 0.06
293.15 K, 101.3 kPa, x1 = 0.4938 | 1.89 ± 0.06
293.15 K, 101.3 kPa, x1 = 0.5997 | 1.71 ± 0.05
293.15 K, 101.3 kPa, x1 = 0.7032 | 1.51 ± 0.05
293.15 K, 101.3 kPa, x1 = 0.8022 | 1.28 ± 0.04
293.15 K, 101.3 kPa, x1 = 0.8961 | 1.11 ± 0.04
303 K, 101 kPa, x1 = 0.1 | 1.009 ± 0.04
303 K, 101 kPa, x1 = 0.2 | 1.181 ± 0.045
303 K, 101 kPa, x1 = 0.3 | 1.357 ± 0.05
303 K, 101 kPa, x1 = 0.4 | 1.364 ± 0.049
303 K, 101 kPa, x1 = 0.55 | 1.43 ± 0.049
303 K, 101 kPa, x1 = 0.6 | 1.41 ± 0.048
303 K, 101 kPa, x1 = 0.7 | 1.34 ± 0.044
303 K, 101 kPa, x1 = 0.8 | 1.21 ± 0.039
303 K, 101 kPa, x1 = 0.9 | 1.02 ± 0.033
313 K, 101 kPa, x1 = 0.1 | 0.869 ± 0.034
313 K, 101 kPa, x1 = 0.2 | 0.989 ± 0.037
313 K, 101 kPa, x1 = 0.3 | 1.138 ± 0.042
313 K, 101 kPa, x1 = 0.4 | 1.148 ± 0.041
313 K, 101 kPa, x1 = 0.55 | 1.19 ± 0.041
313 K, 101 kPa, x1 = 0.6 | 1.17 ± 0.039
313 K, 101 kPa, x1 = 0.7 | 1.1 ± 0.036
313 K, 101 kPa, x1 = 0.8 | 0.98 ± 0.032
313 K, 101 kPa, x1 = 0.9 | 0.83 ± 0.027
